{"source": "ChEMBL document CHEMBL6153155", "about": "“Novel Cyclohexyl Amido Acid Antagonists of Lysophosphatidic Acid Type 1 Receptor for the Treatment of Pulmonary Fibrosis” (ACS Med Chem Lett, 2025)", "key": {"[1]": {"biological_target": "T1, ATP-binding cassette sub-family C member 4 (Homo sapiens, UniProt O15439)", "T1 sequence (O15439 whole entry)": "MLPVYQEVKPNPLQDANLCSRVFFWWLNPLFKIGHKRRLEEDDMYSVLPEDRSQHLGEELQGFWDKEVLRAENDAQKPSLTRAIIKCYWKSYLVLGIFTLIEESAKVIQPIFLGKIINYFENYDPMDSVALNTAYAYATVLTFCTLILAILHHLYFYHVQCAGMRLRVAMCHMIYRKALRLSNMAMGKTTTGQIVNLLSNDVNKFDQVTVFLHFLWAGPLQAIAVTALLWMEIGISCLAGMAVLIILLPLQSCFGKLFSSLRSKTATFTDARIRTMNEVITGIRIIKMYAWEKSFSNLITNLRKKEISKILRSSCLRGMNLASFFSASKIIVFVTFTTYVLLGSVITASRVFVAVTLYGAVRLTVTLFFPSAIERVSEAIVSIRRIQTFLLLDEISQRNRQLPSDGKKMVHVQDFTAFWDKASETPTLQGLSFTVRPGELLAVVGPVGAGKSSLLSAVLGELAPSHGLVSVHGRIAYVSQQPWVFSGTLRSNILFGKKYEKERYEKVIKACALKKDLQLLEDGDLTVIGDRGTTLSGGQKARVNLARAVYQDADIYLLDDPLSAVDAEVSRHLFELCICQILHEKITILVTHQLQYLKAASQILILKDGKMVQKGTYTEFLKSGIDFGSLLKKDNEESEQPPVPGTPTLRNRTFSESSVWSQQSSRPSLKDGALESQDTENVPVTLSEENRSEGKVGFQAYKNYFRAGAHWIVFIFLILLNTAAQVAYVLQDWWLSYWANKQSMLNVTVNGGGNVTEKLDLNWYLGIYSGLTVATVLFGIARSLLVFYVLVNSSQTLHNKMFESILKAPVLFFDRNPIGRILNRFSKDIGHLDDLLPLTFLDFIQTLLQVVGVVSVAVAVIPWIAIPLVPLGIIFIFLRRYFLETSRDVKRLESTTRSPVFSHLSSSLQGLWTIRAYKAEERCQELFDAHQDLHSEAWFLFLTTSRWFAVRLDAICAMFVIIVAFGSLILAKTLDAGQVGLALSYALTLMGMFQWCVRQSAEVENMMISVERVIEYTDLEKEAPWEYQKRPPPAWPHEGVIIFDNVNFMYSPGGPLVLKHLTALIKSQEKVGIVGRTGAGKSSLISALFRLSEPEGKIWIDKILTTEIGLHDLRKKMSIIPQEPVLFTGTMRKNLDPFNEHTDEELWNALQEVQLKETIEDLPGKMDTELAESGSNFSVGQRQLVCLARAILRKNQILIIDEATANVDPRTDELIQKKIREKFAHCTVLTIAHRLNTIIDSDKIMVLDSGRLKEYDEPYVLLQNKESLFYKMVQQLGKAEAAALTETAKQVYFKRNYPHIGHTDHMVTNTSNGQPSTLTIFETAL", "test": "Inhibition of MRP4 (unknown origin) in presence of ATP by membrane vesicular transport assay", "type": "cell membranes, Membrane vesicle"}, "[2]": {"test": "Oral bioavailability in female C57BL/6J mouse at 2 mg/kg, iv measured after 24 hrs by UPLC-MS/MS analysis", "type": "ADME, organism-based", "conditions": "in vivo"}, "[3]": {"test": "Total Cmax in female C57BL/6J mouse plasma at 30 mg/kg, po measured after 24 hrs by UPLC-MS/MS analysis", "type": "ADME, organism-based"}, "[4]": {"test": "Total AUClast in female C57BL/6J mouse plasma at 30 mg/kg, po measured after 24 hrs by UPLC-MS/MS analysis", "type": "ADME, organism-based", "conditions": "in vivo"}, "[5]": {"test": "Metabolic stability in female C57BL/6J mouse liver microsomes assessed as intrinsic clearance measured per mg of protein at 0.5 uM measured upto 45 mins in presence of NADPH regenerating system by HPLC-MS/MS analysis", "type": "ADME, Microsome", "conditions": "read-out: CLH"}, "[6]": {"biological_target": "T2, Lysophosphatidic acid receptor 3 (Homo sapiens, UniProt Q9UBY5)", "T2 sequence (Q9UBY5 whole entry)": "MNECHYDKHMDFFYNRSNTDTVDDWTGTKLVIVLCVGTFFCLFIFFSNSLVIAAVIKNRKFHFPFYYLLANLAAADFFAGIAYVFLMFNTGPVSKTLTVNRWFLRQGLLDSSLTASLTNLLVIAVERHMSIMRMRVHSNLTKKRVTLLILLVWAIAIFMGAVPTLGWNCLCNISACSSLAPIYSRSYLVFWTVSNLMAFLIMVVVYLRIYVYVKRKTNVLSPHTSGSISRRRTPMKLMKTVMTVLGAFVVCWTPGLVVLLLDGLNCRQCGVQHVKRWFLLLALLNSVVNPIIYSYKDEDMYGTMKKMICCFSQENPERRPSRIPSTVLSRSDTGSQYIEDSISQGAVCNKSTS", "test": "Antagonist activity at human LPA3 expressed in human HeLa cells incubated for 30 mins by FLIPR-based calcium mobilization assay", "type": "functional, cell-based"}, "[7]": {"test": "Toxicity in cynomolgus monkey assessed as fasciculation at 210 mg/kg/day, po bid measured after 4 days", "type": "organism-based, Macaca fascicularis", "conditions": "in vivo, 96 h, time 4 day"}, "[8]": {"test": "Unbound Cmax in female C57BL/6J mouse plasma at 30 mg/kg, po measured after 24 hrs by UPLC-MS/MS analysis", "type": "ADME, organism-based", "conditions": "in vivo"}, "[9]": {"biological_target": "T3, Solute carrier organic anion transporter family member 1B1 (Homo sapiens, UniProt Q9Y6L6)", "T3 sequence (Q9Y6L6 whole entry)": "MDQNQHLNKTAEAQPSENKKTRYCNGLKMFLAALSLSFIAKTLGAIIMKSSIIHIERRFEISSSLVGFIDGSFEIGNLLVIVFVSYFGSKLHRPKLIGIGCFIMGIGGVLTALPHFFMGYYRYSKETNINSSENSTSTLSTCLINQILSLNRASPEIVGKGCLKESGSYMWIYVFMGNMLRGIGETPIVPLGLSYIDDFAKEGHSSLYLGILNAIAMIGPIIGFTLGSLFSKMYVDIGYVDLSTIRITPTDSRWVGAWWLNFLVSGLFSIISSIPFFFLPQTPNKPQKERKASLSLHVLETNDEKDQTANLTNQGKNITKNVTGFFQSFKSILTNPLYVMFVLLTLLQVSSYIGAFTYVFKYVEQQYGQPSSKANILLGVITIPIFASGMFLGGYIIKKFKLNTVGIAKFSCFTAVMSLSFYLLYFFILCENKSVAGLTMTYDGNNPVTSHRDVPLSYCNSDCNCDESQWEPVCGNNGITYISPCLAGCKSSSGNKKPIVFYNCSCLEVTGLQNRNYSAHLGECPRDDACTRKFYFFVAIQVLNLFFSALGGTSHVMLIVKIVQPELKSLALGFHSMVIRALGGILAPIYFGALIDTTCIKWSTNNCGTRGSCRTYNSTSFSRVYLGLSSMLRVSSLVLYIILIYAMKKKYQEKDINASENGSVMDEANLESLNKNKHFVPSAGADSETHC", "test": "Inhibition of human OATP1B1 in HEK293 cells", "type": "cell-based"}, "[10]": {"test": "Unbound Cmax in female C57BL/6J mouse lung at 30 mg/kg, po measured after 24 hrs by UPLC-MS/MS analysis", "type": "ADME, organism-based", "conditions": "in vivo"}}, "note": "pIC50: −log10 of the molar value."}
{"compound": "Cc1nc(-c2onc(C)c2NC(=O)O[C@H](C)c2ccccc2Cl)ccc1NC(=O)[C@H]1CCCC[C@@H]1C(=O)O", "values": [{"measurement": "pIC50", "setting": "[1]", "result": 4.20}, {"measurement": "bioavailability", "setting": "[2]", "result": 100, "unit": "%"}, {"measurement": "Cmax", "setting": "[3]", "result": 99.4, "unit": "µg/mL"}, {"measurement": "AUClast", "setting": "[4]", "result": 247000, "unit": "h/ng/mL"}, {"measurement": "microsomal CLint at 0.5 µM", "setting": "[5]", "result": 4, "unit": "µL/min/mg"}, {"measurement": "pIC50", "setting": "[6]", "result": 4.43}, {"measurement": "Activity", "setting": "[7]", "result": "Toxic"}, {"measurement": "fCmax", "setting": "[8]", "result": 1479, "unit": "ng/mL"}, {"measurement": "pIC50", "setting": "[9]", "result": 5.30}, {"measurement": "fCmax", "setting": "[10]", "result": 1553, "unit": "ng/mL"}]}
